Results from patent US20140121216A1, “INDOLEAMINE DERIVATIVES FOR THE TREATMENT OF CENTRAL NERVOUS SYSTEM DISEASES” (Adamed Sp. z o.o., priority 2011, published 2014).

Columns and labels:
[1] = test system: Swiss albino mice; assay: Four-plate test in Swiss albino mice; format: in vivo
Procedure: Within 24 h prior to testing, animals were habituated to experimental conditions. For this purpose mice in home cages were transferred to the experimental room for 15 min., while maintaining the lighting and the “white noise” characteristic for the experiment.
The four-plate test (BIOSEB, France) was performed in a cage (25×18×16 cm) floored by four identical rectangular metal plates (8×11 cm) separated from one another by a gap of 4 mm. The top of the cage was covered by a transparent Perspex lid that prevented escape behaviour. The plates were connected to a device that generated electric shocks. Animals were placed individually in the experimental cage and following a 15-s habituation period, the animal's motivation to explore a novel environment was suppressed by an electric foot shock (0.8 mA, 0.5 s) every time it moved from one plate is to another during a 1-minute test session. This action is referred to as a ‘punished crossing’, and was followed by a 3 s shock interval, during which the animal could move across plates without receiving a shock. The measure of anxiolytic activity of the compound was the number of ‘punished crossings’ from one plate to the adjacent during 1-min test period.

[2] = biological target: 5-HT2A receptor, human recombinant (Homo sapiens, UniProt P28223); assay: Binding assay, 5-HT2A receptor ([3H]ketanserin)
Chain of 5-HT2A receptor, human recombinant (P28223 whole entry, looked up): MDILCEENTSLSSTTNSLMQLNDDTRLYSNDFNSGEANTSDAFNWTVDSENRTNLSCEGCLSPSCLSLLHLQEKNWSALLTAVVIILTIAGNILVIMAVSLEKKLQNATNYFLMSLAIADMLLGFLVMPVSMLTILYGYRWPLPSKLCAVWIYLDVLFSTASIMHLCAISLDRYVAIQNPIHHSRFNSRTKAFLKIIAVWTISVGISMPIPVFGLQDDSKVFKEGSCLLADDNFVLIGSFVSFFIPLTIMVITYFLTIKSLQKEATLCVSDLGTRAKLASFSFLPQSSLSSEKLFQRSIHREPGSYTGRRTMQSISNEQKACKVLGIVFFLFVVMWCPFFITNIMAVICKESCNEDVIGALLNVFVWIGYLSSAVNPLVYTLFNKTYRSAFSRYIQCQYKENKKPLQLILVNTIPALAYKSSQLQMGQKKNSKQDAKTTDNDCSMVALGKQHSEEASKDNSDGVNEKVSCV
Procedure: Moreover, ability of the compounds of the invention to block potassium channel hERG was tested.
The specific ligand binding to the receptors is defined as the difference between the total binding and the non-specific binding determined in the presence of an excess of unlabelled ligand.
The inhibition constants (Ki) were calculated using the Cheng Prusoff equation (Ki=IC50/(1+(L/KD)), where L=concentration of radioligand in the assay, and KD=affinity of the radioligand for the receptor). A Scatchard plot is used to determine the Kd. The IC50 values (concentration causing a half-maximal inhibition of control specific binding) and Hill coefficients (nH) were determined by non-linear regression analysis of the competition curves generated with mean replicate values using Hill equation curve fitting (Y=D+[(A−D)/(1+(C/C50)^nH)], where Y=specific binding, D=minimum specific binding, A=maximum specific binding, C=compound concentration, C50=IC50, and nH=slope factor).

## O=C1CCc2ccc(OCCCCN3CCN(c4cccc5c4ccn5S(=O)(=O)c4ccccc4)CC3)cc2N1 [Compound 24, 7-(4-(4-(1-(Phenylsulphonyl)-1H-indol-4-yl)piperazin-1-yl)butoxy)-3,4-dihydroquinolin-2(1H)-one]
[1]; Swiss albino mice
  MED (minimum effective dose), four-plate test: 5 mg/kg
[1]; mice
  activity in words, four-plate test: active

## O=C1CCc2ccc(OCCCCN3CCN(c4cccc5c4ccn5Cc4cccc(Cl)c4)CC3)cc2N1 [Compound 67, 7-[4-[4-[1-[(3-Chlorophenyl)methyl]indol-4-yl]piperazin-1-yl]butoxy]-3,4-dihydro-1H-quinolin-2-one]
[2]
  Ki: 2.4 nM
